Assay results published in US9187771B2, “Phenylpyruvate reductase and method for manufacturing optically-active phenyllactic acid and 4-hydroxyl-phenyllactic acid using same enzyme” (Asahi Kasei Chemicals Corporation, priority 2011, dated 2015).
Like-named read-outs stand apart in the source and are kept apart here. Values belong to the compound of their own block, whether it stands above or below them.

Legend:
[1] = test system: PPR (phenylpyruvate reductase) from Wickerhamia fluorescens TK1; assay: PPR activity measurement with purified PPR enzyme (NADPH decrease at 340 nm); assay type: biochemical; conditions: for reverse reaction of the PPR enzyme: combination of D-3-phenyllactate, L-3-phenyllactate, NAD+ and NADP+ as substrate; for reduction of substrate by the PPR enzyme: NADPH as coenzyme; for effect of metal ion on PPR activity: final concentration 1 mM
rPPR (recombinant PPR) = assay type: biochemical, Wickerhamia fluorescens TK1; conditions: variable substrate; fixed substrate NADPH
[2] = test system: W. fluorescens TK1 strain; conditions: 5.0 mM added to MM culture medium, aerobic shake culture
[3] = test system: PPR activity of W. fluorescens TK1 strain; assay type: cell-based, Wickerhamia fluorescens TK1
pprA gene = assay: Real-time PCR of pprA transcript; conditions: 5 mM phenylalanine, culture 8 hours
[4] = final concentration of compound 1 mM, None = 100
[5] = variable coenzyme, fixed substrate Phenylpyruvate

Compound: O=C(O)C(O)Cc1ccccc1 (stereo in doubt) [D-3-phenyllactate]
reverse reaction of the PPR enzyme [1]: failure of an enzyme reaction to arise

Compound: O=C(O)C(O)Cc1ccccc1 (stereo in doubt) [L-3-phenyllactate]
reverse reaction of the PPR enzyme [1]: failure of an enzyme reaction to arise

Compound: OCCS [2-Mercaptoethanol]
Relative activity [1]: 64%

Compound: O=C(O)C(=O)Cc1ccc(O)cc1 [4-hydroxyphenylpyruvate]
reduction of substrate by the PPR enzyme [1]: reduced

Compound: [Ca+2].[Cl-].[Cl-] [CaCl2]
Relative activity [1, 4]: 90%

Compound: [Cl-].[Cl-].[Co+2] [CoCl2]
Relative activity [1]: 61%

Compound: O=S(=O)([O-])[O-].[Cu+2] [CuSO4]
effect of metal ion on PPR activity [1]: inhibit PPR activity
Relative activity [1, 4]: 0%

Compound: O=C(O)CN(CCN(CC(=O)O)CC(=O)O)CC(=O)O [EDTA, ethylenediaminetetraacetate]
Relative activity [1, 4]: 84%

Compound: [Cl][Fe][Cl] [FeCl2]
effect of metal ion on PPR activity [1]: inhibit PPR activity
Relative activity [1, 4]: 0%

Compound: O=CC(=O)O [Glyoxylate]
reduction of substrate by the PPR enzyme [1]: reduced
kcat ([1]; variable substrate, fixed substrate NADPH): 18.9 ± 3.4 s⁻¹
Km ([1]; variable substrate, fixed substrate NADPH, pH 6.5, 25° C.): 18.9 ± 5.8 mM
Km (rPPR (recombinant PPR)): 25.2 ± 3.1 mM
kcat (rPPR (recombinant PPR)): 10.4 ± 0.8 s⁻¹

Compound: [Cl][Hg][Cl] [HgCl2]
effect of metal ion on PPR activity [1]: inhibit PPR activity
Relative activity [1, 4]: 0%

Compound: O=C(O)C(=O)CO [Hydroxypyruvate]
kcat [1]: 9.14 ± 0.70 s⁻¹
reduction of substrate by the PPR enzyme [1]: reduced
Km ([1]; pH 6.5): 3.46 ± 0.83 mM
Km (rPPR (recombinant PPR)): 6.99 ± 2.74 mM
kcat (rPPR (recombinant PPR)): 6.63 ± 1.04 s⁻¹

Compound: N[C@@H](Cc1ccccc1)C(=O)O [L-phenylalanine]
D-3-phenyllactate production relative to when none was added [2]: 57.5 fold
quantity of cells relative to when none was added [2]: 5.1 fold
D-3-phenyllactate production relative to when none was added ([2]; listed as phenylalanine): up to 58 fold
PPR activity compared with culture in the GPAMM culture medium (phenylpyruvate added) ([3]; 10 hours at 30° C.): 3.0 times
PPR activity compared with culture in the MM culture medium ([3]; 10 hours at 30° C.): 3.6 fold
PPR activity of the cell free extract ([3]; cells cultured 10 hours at 30° C. in medium with 5 mM L-phenylalanine): 0.22 µmol/min/mg
transcription level of the pprA gene compared with GPAMM culture medium (pprA gene): 18 fold
transcription level of the pprA gene compared with MM culture medium (pprA gene): 40 fold

Compound: O=S(=O)([O-])[O-].[Mg+2] [MgSO4]
Relative activity [1, 4]: 92%

Compound: [Cl][Mn][Cl] [MnCl2]
Relative activity [1, 4]: 103%

Relative activity [1, 4]: 89%
Compound: [Na+].[Na+].[O]=[Mo](=[O])([O-])[O-] [Na2MoO4]

Compound: [Na+].[Na+].[O]=[W](=[O])([O-])[O-] [Na2WO4]
effect of metal ion on PPR activity [1]: inhibit PPR activity
Relative activity [1, 4]: 0%

Compound: [Cl][Ni][Cl] [NiCl2]
Relative activity [1, 4]: 63%

Compound: O=C(O)C(=O)Cc1ccccc1 [Phenylpyruvate, phenylpyruvate]
D-3-phenyllactate production relative to when none was added [2]: 8.9 fold
quantity of cells relative to when none was added [2]: 1.5 fold

Relative activity ([1]; final concentration 0.5%, None = 100): 52%
Compound: CCCCCCCC/C=C\CCCCCCCC(=O)OCCOCC(OCCO)C1OCC(OCCO)C1OCCO (stereo not drawn) [Tween 80]

Compound: O=S(=O)([O-])[O-].[Zn+2] [ZnSO4]
effect of metal ion on PPR activity [1]: inhibit PPR activity
Relative activity [1, 4]: 9%

Compound: NADH
kcat/Km with NADH relative to that with NADPH as coenzyme ([1]; fixed substrate phenylpyruvate): 1/31
Km [1, 5]: 0.1 ± 0.04 mM
kcat [1, 5]: 31.4 ± 7.1 s⁻¹

Compound: NADPH
Km [1, 5]: 0.01 mM
kcat [1, 5]: 121 ± 2 s⁻¹

Compound: TritonX-100
Relative activity [1]: 82%
